Test results from ChEMBL document CHEMBL1142450, “3-(Imidazolyl methyl)-3-aza-bicyclo[3.1.0]hexan-6-yl)methyl ethers: a novel series of mGluR2 positive allosteric modulators” (Bioorg Med Chem Lett, 2008).

Experiments:
Type in all cases: ADME, organism-based
[1] = Oral bioavailability in Sprague-Dawley rat at 5 mg/kg; details: in vivo
[2] = Fraction absorbed in Sprague-Dawley rat at 5 mg/kg, po; parameters: dose 5 mg/kg, route oral; details: in vivo, read-out: Fabs
[3] = Ratio of drug level in brain to plasma in Sprague-Dawley rat at 10 mg/kg, sc; parameters: dose 10 mg/kg, route subcutaneous; details: brain and plasma, read-out: BPR

bioavailability [1] | Fa [2] | Kp [3] | Structure (SMILES)
79% | 84% |  | Cn1c(CN2C[C@@H]3C(COc4cccc(Cl)c4)[C@@H]3C2)nc2ncccc21 (stereo partly drawn)
20% | 72% |  | Cn1c(CN2C[C@@H]3C(COc4ccc(Cl)cn4)[C@@H]3C2)nc2ccccc21 (stereo partly drawn)
27% |  |  | Cn1c(CN2C[C@@H]3C(COc4ccc(C(F)(F)F)cn4)[C@@H]3C2)nc2ccccc21 (stereo partly drawn)
< 2% | 5% | 2 | Cn1c(CN2C[C@@H]3C(COc4ccccc4)[C@@H]3C2)nc2ccccc21 (stereo partly drawn)
